ChEMBL document CHEMBL4507257, “Data for DCP probe ABT-100” (2021)

How the values were obtained:
[1] = biological target: Tyrosine-protein kinase HCK (Homo sapiens) (UniProt P08631); settings: Compound concentration 1000.0 nM
[2] = biological target: Eukaryotic translation initiation factor 2-alpha kinase 1 (Homo sapiens) (UniProt Q9BQI3); settings: Compound concentration 1000.0 nM
[3] = biological target: Myosin-IIIb (Homo sapiens) (UniProt Q8WXR4); settings: Compound concentration 1000.0 nM
[4] = biological target: Protein-tyrosine kinase 6 (Homo sapiens) (UniProt Q13882); settings: Compound concentration 1000.0 nM
[5] = biological target: Vascular endothelial growth factor receptor 1 (Homo sapiens) (UniProt P17948); settings: Compound concentration 1000.0 nM
[6] = biological target: Serine/threonine-protein kinase DCLK1 (Homo sapiens) (UniProt O15075); settings: Compound concentration 1000.0 nM
[7] = biological target: Mast/stem cell growth factor receptor Kit (Homo sapiens) (UniProt P10721); settings: Compound concentration 1000.0 nM
[8] = biological target: Ephrin type-A receptor 3 (Homo sapiens) (UniProt P29320); settings: Compound concentration 1000.0 nM
[9] = biological target: 5-hydroxytryptamine receptor 1B (Homo sapiens) (UniProt P28222); settings: Compound concentration 10.0 uM
[10] = biological target: Ephrin type-A receptor 5 (Homo sapiens) (UniProt P54756); settings: Compound concentration 1000.0 nM
[11] = biological target: Serine/threonine-protein kinase PAK 3 (Homo sapiens) (UniProt O75914); settings: Compound concentration 1000.0 nM
[12] = system: Tyrosine-protein kinase ABL1 (Homo sapiens), P00519 [E255K]; settings: Compound concentration 1000.0 nM
[13] = biological target: Mitogen-activated protein kinase kinase kinase 14 (Homo sapiens) (UniProt Q99558); settings: Compound concentration 1000.0 nM
[14] = biological target: Serine/threonine-protein kinase WNK1 (Homo sapiens) (UniProt Q9H4A3); settings: Compound concentration 1000.0 nM
[15] = biological target: Serine/threonine-protein kinase 17A (Homo sapiens) (UniProt Q9UEE5); settings: Compound concentration 1000.0 nM
[16] = biological target: Mitogen-activated protein kinase kinase kinase kinase 1 (Homo sapiens) (UniProt Q92918); settings: Compound concentration 1000.0 nM
[17] = biological target: Tyrosine-protein kinase Fyn (Homo sapiens) (UniProt P06241); settings: Compound concentration 1000.0 nM
[18] = system: Hepatocyte growth factor receptor (Homo sapiens), P08581 [Y1235D]; settings: Compound concentration 1000.0 nM
[19] = biological target: Dual specificity protein kinase CLK2 (Homo sapiens) (UniProt P49760); settings: Compound concentration 1000.0 nM
[20] = biological target: Cyclin-dependent kinase 4 (Homo sapiens) (UniProt P11802); settings: Compound concentration 1000.0 nM
[21] = biological target: Cyclin-dependent kinase 17 (Homo sapiens) (UniProt Q00537); settings: Compound concentration 1000.0 nM
[22] = system: Receptor-type tyrosine-protein kinase FLT3 (Homo sapiens), P36888 [UNDEFINED MUTATION]; settings: Compound concentration 1000.0 nM
[23] = biological target: Phosphatidylinositol 5-phosphate 4-kinase type-2 gamma (Homo sapiens) (UniProt Q8TBX8); settings: Compound concentration 1000.0 nM
[24] = system: Receptor-type tyrosine-protein kinase FLT3 (Homo sapiens), P36888 [UNDEFINED MUTATION]; settings: Compound concentration 1000.0 nM; remark: listed apart in the source
[25] = biological target: Megakaryocyte-associated tyrosine-protein kinase (Homo sapiens) (UniProt P42679); settings: Compound concentration 1000.0 nM
[26] = biological target: Calcium/calmodulin-dependent protein kinase kinase 2 (Homo sapiens) (UniProt Q96RR4); settings: Compound concentration 1000.0 nM
[27] = biological target: Ephrin type-A receptor 2 (Homo sapiens) (UniProt P29317); settings: Compound concentration 1000.0 nM
[28] = biological target: Muscarinic acetylcholine receptor M3 (Homo sapiens) (UniProt P20309); settings: Compound concentration 10.0 uM
[29] = biological target: Activated CDC42 kinase 1 (Homo sapiens) (UniProt Q07912); settings: Compound concentration 1000.0 nM
[30] = biological target: Serine/threonine-protein kinase TAO2 (Homo sapiens) (UniProt Q9UL54); settings: Compound concentration 1000.0 nM
[31] = biological target: Fibroblast growth factor receptor 1 (Homo sapiens) (UniProt P11362); settings: Compound concentration 1000.0 nM
[32] = biological target: Tyrosine-protein kinase receptor UFO (Homo sapiens) (UniProt P30530); settings: Compound concentration 1000.0 nM
[33] = biological target: Serine/threonine-protein kinase Nek6 (Homo sapiens) (UniProt Q9HC98); settings: Compound concentration 1000.0 nM
[34] = biological target: Activin receptor type-1 (Homo sapiens) (UniProt Q04771); settings: Compound concentration 1000.0 nM
[35] = biological target: Serine/threonine-protein kinase/endoribonuclease IRE1 (Homo sapiens) (UniProt O75460); settings: Compound concentration 1000.0 nM
[36] = biological target: Serine/threonine-protein kinase 17B (Homo sapiens) (UniProt O94768); settings: Compound concentration 1000.0 nM
[37] = biological target: Peripheral plasma membrane protein CASK (Homo sapiens) (UniProt O14936); settings: Compound concentration 1000.0 nM
[38] = biological target: cAMP-dependent protein kinase catalytic subunit beta (Homo sapiens) (UniProt P22694); settings: Compound concentration 1000.0 nM
[39] = biological target: T1, Muscarinic acetylcholine receptor M1 (Homo sapiens) (UniProt P11229); settings: Compound concentration 10.0 uM
T1 sequence (whole entry): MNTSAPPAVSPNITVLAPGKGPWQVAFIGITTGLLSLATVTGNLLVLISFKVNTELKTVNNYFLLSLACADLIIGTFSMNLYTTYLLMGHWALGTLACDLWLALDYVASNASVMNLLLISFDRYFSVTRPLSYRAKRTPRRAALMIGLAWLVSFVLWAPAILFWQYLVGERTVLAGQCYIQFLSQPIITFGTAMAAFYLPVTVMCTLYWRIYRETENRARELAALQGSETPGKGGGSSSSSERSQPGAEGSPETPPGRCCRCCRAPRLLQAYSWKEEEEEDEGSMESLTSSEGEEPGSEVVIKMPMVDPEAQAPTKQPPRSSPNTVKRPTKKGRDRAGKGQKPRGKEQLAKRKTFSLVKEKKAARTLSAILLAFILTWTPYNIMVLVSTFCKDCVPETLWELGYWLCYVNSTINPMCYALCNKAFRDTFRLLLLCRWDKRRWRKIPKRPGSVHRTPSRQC

Receptor-type tyrosine-protein kinase FLT3 (Homo sapiens), P36888 [UNDEFINED MUTATION], sequence (P36888 whole entry, looked up, change not shown): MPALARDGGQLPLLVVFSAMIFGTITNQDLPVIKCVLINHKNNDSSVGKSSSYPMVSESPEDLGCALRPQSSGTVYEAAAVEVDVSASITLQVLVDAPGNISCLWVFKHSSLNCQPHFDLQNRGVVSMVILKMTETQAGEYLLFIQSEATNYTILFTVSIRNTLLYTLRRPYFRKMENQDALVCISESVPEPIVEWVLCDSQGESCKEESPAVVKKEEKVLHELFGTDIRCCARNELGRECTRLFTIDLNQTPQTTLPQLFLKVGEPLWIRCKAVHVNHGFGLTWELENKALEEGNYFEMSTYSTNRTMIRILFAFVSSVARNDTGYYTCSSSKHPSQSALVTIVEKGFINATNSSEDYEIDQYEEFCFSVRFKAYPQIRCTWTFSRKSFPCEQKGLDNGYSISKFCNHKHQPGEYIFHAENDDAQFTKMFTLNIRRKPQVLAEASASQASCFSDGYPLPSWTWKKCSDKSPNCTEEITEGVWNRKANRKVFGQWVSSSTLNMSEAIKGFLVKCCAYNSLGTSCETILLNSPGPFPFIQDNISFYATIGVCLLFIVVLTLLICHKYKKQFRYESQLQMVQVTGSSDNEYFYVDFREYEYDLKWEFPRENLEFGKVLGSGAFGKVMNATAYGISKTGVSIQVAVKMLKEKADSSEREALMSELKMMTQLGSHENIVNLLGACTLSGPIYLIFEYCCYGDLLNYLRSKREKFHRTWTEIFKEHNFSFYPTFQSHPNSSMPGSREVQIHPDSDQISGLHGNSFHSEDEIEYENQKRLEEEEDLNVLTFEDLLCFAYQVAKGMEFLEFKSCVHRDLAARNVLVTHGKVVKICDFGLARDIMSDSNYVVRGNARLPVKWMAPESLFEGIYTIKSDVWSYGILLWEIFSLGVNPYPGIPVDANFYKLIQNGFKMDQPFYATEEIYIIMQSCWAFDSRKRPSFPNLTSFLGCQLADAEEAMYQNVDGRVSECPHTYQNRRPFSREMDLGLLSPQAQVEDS
Ephrin type-A receptor 5 (Homo sapiens), sequence (P54756 whole entry): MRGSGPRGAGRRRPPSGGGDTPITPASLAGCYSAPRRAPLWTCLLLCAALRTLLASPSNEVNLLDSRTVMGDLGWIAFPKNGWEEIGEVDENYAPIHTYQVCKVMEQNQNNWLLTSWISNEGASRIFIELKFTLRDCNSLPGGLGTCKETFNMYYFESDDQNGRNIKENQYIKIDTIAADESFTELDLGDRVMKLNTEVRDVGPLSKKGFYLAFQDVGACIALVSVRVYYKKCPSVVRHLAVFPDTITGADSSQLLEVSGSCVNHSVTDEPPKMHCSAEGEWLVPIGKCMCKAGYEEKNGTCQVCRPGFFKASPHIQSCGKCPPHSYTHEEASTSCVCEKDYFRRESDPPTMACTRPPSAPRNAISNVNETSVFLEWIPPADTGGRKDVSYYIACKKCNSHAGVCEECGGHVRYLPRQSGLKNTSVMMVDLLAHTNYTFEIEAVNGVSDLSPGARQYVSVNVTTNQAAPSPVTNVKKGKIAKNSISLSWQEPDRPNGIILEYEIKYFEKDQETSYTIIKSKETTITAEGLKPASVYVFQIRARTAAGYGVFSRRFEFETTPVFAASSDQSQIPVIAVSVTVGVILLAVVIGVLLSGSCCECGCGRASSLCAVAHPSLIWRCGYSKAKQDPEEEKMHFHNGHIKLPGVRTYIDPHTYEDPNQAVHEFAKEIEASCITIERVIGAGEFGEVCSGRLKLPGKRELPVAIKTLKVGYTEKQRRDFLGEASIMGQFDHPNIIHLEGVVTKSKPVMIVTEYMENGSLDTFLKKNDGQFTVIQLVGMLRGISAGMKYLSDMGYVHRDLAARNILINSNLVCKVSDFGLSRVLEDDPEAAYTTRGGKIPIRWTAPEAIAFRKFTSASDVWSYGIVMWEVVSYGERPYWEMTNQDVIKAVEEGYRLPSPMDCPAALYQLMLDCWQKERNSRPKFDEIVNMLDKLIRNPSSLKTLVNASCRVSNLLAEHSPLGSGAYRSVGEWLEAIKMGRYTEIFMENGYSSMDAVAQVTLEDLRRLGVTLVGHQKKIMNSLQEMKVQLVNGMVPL
Serine/threonine-protein kinase TAO2 (Homo sapiens), sequence (Q9UL54 whole entry): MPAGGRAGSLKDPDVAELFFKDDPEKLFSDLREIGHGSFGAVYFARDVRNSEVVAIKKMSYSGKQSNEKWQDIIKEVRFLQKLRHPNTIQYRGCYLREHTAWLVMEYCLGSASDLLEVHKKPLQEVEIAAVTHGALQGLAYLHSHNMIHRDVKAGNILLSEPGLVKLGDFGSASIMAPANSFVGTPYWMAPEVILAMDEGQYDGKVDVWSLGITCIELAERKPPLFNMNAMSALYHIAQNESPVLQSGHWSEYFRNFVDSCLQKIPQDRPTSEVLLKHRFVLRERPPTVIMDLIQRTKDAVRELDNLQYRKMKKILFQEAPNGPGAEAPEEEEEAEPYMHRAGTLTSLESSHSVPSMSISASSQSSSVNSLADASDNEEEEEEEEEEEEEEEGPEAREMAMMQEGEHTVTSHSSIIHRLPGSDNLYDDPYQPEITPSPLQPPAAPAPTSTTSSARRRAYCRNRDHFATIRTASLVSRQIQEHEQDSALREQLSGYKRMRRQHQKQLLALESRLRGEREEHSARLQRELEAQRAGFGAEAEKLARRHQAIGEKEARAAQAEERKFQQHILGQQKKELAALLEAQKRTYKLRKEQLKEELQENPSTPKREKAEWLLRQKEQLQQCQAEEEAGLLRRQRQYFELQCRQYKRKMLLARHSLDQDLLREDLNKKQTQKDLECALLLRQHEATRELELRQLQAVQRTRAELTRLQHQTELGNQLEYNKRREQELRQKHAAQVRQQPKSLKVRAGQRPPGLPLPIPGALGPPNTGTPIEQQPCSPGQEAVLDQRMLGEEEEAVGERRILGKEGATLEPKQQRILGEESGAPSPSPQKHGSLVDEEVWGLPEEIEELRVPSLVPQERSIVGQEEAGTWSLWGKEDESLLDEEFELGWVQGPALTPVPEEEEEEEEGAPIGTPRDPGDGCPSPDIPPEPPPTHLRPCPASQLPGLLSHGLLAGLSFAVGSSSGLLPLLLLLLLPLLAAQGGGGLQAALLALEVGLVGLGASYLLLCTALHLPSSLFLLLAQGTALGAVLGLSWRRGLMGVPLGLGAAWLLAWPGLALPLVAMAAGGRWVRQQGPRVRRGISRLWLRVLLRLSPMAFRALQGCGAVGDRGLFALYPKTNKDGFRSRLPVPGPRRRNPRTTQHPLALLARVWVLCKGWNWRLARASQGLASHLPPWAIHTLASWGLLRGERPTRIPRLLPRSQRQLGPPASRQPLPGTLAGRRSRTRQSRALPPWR
Muscarinic acetylcholine receptor M3 (Homo sapiens), sequence (P20309 whole entry, looked up): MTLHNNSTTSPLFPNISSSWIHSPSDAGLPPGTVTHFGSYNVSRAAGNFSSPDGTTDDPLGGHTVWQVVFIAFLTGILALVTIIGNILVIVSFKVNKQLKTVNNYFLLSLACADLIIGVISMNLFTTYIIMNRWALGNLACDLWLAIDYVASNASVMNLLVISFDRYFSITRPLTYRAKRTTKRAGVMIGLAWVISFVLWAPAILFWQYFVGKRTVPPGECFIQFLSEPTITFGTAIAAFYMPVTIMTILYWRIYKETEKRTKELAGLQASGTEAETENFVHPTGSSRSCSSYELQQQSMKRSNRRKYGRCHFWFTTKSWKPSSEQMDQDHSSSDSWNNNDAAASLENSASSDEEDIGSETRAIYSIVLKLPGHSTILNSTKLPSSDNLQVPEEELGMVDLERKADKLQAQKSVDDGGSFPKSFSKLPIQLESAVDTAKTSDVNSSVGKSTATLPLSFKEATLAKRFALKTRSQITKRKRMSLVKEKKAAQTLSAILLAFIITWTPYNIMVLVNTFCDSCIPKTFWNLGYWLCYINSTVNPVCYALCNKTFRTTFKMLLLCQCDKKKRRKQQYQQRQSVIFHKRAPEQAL
Serine/threonine-protein kinase 17B (Homo sapiens), sequence (O94768 whole entry): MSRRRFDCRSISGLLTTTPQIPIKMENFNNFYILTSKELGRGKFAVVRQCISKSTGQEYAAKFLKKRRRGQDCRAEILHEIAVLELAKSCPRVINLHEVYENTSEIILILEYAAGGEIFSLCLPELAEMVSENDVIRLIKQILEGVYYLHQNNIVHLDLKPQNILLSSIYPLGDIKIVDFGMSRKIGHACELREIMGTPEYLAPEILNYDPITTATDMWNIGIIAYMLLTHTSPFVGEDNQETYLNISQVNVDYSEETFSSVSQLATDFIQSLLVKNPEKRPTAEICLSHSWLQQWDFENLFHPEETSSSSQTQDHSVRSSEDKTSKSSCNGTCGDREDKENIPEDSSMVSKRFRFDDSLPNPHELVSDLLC
Serine/threonine-protein kinase DCLK1 (Homo sapiens), sequence (O15075 whole entry): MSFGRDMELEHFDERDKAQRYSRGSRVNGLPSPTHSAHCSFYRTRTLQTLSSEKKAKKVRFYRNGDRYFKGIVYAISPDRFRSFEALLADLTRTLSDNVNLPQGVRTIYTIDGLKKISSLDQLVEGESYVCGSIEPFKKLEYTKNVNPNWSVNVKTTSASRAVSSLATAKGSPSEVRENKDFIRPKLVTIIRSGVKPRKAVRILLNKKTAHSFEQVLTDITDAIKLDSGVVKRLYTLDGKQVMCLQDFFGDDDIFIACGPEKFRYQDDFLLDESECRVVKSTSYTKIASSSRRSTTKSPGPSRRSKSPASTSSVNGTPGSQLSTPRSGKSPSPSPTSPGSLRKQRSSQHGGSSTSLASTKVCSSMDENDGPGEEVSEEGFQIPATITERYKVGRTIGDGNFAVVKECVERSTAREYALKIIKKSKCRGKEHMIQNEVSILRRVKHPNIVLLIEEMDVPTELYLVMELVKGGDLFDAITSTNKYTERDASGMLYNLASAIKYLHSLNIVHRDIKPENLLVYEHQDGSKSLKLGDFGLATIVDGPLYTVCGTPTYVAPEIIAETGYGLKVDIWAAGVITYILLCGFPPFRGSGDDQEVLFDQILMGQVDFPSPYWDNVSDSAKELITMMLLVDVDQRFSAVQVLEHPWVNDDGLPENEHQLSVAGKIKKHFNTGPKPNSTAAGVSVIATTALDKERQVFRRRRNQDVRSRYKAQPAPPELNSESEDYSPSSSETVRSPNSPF

Cn1cncc1[C@](O)(COc1ccc(C#N)cc1-c1ccc(OC(F)(F)F)cc1)c1ccc(C#N)cc1 [ABT-100]
inactive: residual activity [1] 100% | residual activity [2] 100% | residual activity [3] 71% | residual activity [4] 100% | residual activity [5] 98% | residual activity [6] 94% | residual activity [7] 95% | residual activity [8] 90% | inhibition [9] -4.28% | residual activity [10] 97% | residual activity [11] 96% | residual activity [12] 94% | residual activity [13] 88% | residual activity [14] 100% | residual activity [15] 100% | residual activity [16] 100% | residual activity [17] 100% | residual activity [18] 78% | residual activity [19] 87% | residual activity [20] 100% | residual activity [21] 100% | residual activity [22] 98% | residual activity [23] 87% | residual activity [24] 69% | residual activity [25] 98% | residual activity [26] 100% | residual activity [27] 62% | inhibition [28] 23.3% | residual activity [29] 100% | residual activity [30] 98% | residual activity [31] 62% | residual activity [32] 100% | residual activity [33] 95% | residual activity [34] 78% | residual activity [35] 100% | residual activity [36] 64% | residual activity [37] 83% | residual activity [38] 93% | inhibition [39] -4.07%

Cn1cncc1[C@@](O)(COc1ccc(C#N)cc1-c1ccc(OC(F)(F)F)cc1)c1ccc(C#N)cc1 [A-108]
inactive: residual activity [1] 100% | residual activity [2] 100% | residual activity [3] 55% | residual activity [4] 100% | residual activity [5] 83% | residual activity [6] 87% | residual activity [7] 90% | residual activity [8] 100% | inhibition [9] 3.34% | residual activity [10] 67% | residual activity [11] 91% | residual activity [12] 72% | residual activity [13] 92% | residual activity [14] 100% | residual activity [15] 100% | residual activity [16] 100% | residual activity [17] 97% | residual activity [18] 100% | residual activity [19] 90% | residual activity [20] 100% | residual activity [21] 95% | residual activity [22] 100% | residual activity [23] 96% | residual activity [24] 80% | residual activity [25] 100% | residual activity [26] 97% | residual activity [27] 89% | inhibition [28] 2.79% | residual activity [29] 100% | residual activity [30] 98% | residual activity [31] 100% | residual activity [32] 100% | residual activity [33] 95% | residual activity [34] 100% | residual activity [35] 95% | residual activity [36] 84% | residual activity [37] 92% | residual activity [38] 100% | inhibition [39] 25.8%
